Assay results published in patent US20040258662A1, “Antineoplastic agents” (Wyeth, priority 2003, published 2004).

Key:
HTB-44 human renal tumor = HTB-44 human renal tumor xenograft test procedure in nude mice; format: in vivo; parameters: Tumor mass, % of vehicle control, Week 0 / Tumor mass, % of vehicle control, Week 2 / Tumor mass, % of vehicle control, Week 4: concentration or dose not given beside the values; conditions: for effect on tumor growth (in words): CCI-779 25 mg/kg iv weekly or IFN-α 1 million units ip 3 times per week; for Tumor mass, Week 0 / Tumor mass, Week 2 / Tumor mass, Week 4 / Tumor mass, Week 5: CCI-779 25 mg/kg iv once per week; for Tumor mass, Week 0 / Tumor mass, Week 2 / Tumor mass, Week 4: IFN-α 1 × 10^6 units ip 3 times per week; for Tumor mass, Week 0: 4 weeks, tumors about 600 mg at start; for Tumor mass, % of vehicle control, Week 0 / Tumor mass, % of vehicle control, Week 2 / Tumor mass, % of vehicle control, Week 4 / Tumor mass, % of vehicle control, Week 5: same dosing as the tumor mass values; for Tumor mass, Week 5: IFN-α 1 × 10^6 units ip 3 times per week for 4 weeks
Method: CCI-779 was evaluated in combination with Interferon-alpha (IFN-α) in the HTB44 human mouse xenograft standard pharmacological test procedure of renal cancer. The human renal cell line HTB-44 (also referred to in the scientific literature as A498) is derived from a patient with a clear cell carcinoma that had lost expression of the von Hippel-Lindau (VHL) gene. These types of tumors are representative of the large majority (≈80%) of sporadic renal cell carcinomas.
CCI-779 was evaluated as a single agent on a weekly schedule against large (>500mg) HTB-44 tumors in nude mouse xenografts. Dosing was from 10 mg/kg to 75 mg/kg intravenously once a week beginning on day 0 when tumors had reached a size of about 500 mm^3.
Similarly, a dose response of IFN-α as a single agent was performed. […] Therefore, a dose of 1 million units 3 times per week intraperitoneally was chosen to combine with CCI-779 at 25 mg/kg iv once per week. Groups of 10 mice were treated with CCI-779 alone, IFN-α alone, or the combination (Table 1). IFN-α was given on days 1, 3, and 5 and CCI-779 on day 6 of each week for 4 weeks. Dosing began after tumors had reached a size of about 600 mg.

advanced RCC = test: Phase 1 open-label ascending-dose study of CCI-779 plus IFN in RCC patients; format: in vivo
Method: Thus, the combination of CCI-779 and IFN was evaluated in RCC patients (pts) in a phase 1 study.
In an open-label, ascending-dose, single-arm study, CCI-779 was given IV once weekly, with IFN given subcutaneously 3 times weekly. IFN was given alone the 1st treatment week. The starting dose levels were 6 million units (MU) IFN and 5 mg CCI-779. CCI-779 dose-escalation steps were 10 mg, 15 mg, and 25 mg. Once the maximum dose of CCI-779 is determined, the dose level of IFN can be escalated to 9 MU (at a reduced CCI-779 dose, if necessary). Dose escalation was based on a safety evaluation of pts (≧6/cohort) after 4 weeks of treatment.
Up to 40 patients are being evaluated at the maximum tolerated dose (MTD). In summary, 71 pts with advanced RCC were enrolled; 27 continue treatment. Patients (73% men, 27% women) had ECOG performance status of 0: 53% and 1: 46% and median age of 59 yrs (range, 35-80); 45% had prior IL-2 treatment. In dose escalation, patients received 6 MU IFNα with CCI-779 at 5 mg (7 pts), 10 mg (6), 15 mg (6), 20 mg (6), or 25 mg (7); 6 pts also received 9 MU IFNα with 15 mg CCI-779. […] To date, 33 additional patients have been accrued at the MTD. […] CCI-779-related adverse events with overall frequency ≧5% (n=53) were leukopenia (25%), hyperlipidemia (15%), asthenia (13%), AST increase (8%), mucositis (6%), anemia (6%), thrombocytopenia (6%), and rash (6%). Four patients were removed from study due to CCI-779-related toxicity. Approximately 50% of MTD patients have required CCI-779 dose reductions in subsequent cycles. Median time on treatment for all cohorts was 7 mo, 36 have continued for >6 mo of whom 9 have continued for >12 mo. Preliminary tumor responses (RECIST) in 55 pts were confirmed partial response, 7 pts (13%); stable disease, 39 (71%, 19 pts ≧6 mo); and progressive disease, 9 (16%).

[1] = Stability of CCI-779 in parenteral cosolvent formulation; format: physicochemical; conditions: citric acid at a concentration of less than 0.01% w/v
Excerpt: In this embodiment, the stability of CCI-779 in parenterally acceptable alcoholic cosolvents is enhanced by addition of an antioxidant to the formulation. Acceptable antioxidants include, but are not limited to, citric acid, d,l-α-tocopherol, BHA, BHT, monothioglycerol, ascorbic acid, propyl gallate, and mixtures thereof. Generally, the parenteral formulations useful in this embodiment of the invention will contain an antioxidant component(s) in a concentration ranging from 0.001% to 1% w/v, or 0.01% to 0.5% w/v, of the cosolvent concentrate, although lower or higher concentrations may be desired. Of the antioxidants, d,l-α-tocopherol is particularly desirable and is used at a concentration of 0.01 to 0.1% w/v with a preferred concentration of 0.075% w/v of the cosolvent concentrate.
Examples of such chelating agents include, e.g., citric acid, acetic acid, and ascorbic acid (which may function as both a classic antioxidant and a chelating agent in the present formulations). Other chelating agents include such materials as are capable of binding metal ions in solution, such as ethylene diamine tetra acetic acid (EDTA), its salts, or amino acids such as glycine are capable of enhancing the stability of CCI-779. […] Optimal concentrations for the selected antioxidant(s) can be readily determined by one of skill in the art, based upon the information provided herein.

tumor cells = conditions: cited from earlier work
human tumor xenografts = conditions: nude mice, cited from earlier work
[2] = tested on: human glioblastoma cell line; conditions: in vitro; cited from earlier work

Interferon α [reference compound]
single agent dose response, effectiveness (HTB-44 human renal tumor; 1 million units or 0.5 million units 3 times per week, data not shown): similarly effective | effect on tumor growth (in words) (HTB-44 human renal tumor; single agent): retardation of tumor growth without tumor regression | Tumor mass, Week 0 (HTB-44 human renal tumor): 586 mg | Tumor mass, % of vehicle control, Week 0 (HTB-44 human renal tumor): 100% | Tumor mass, Week 2 (HTB-44 human renal tumor): 682 mg | Tumor mass, % of vehicle control, Week 2 (HTB-44 human renal tumor): 66% | Tumor mass, Week 4 (HTB-44 human renal tumor): 957 mg | Tumor mass, % of vehicle control, Week 4 (HTB-44 human renal tumor): 48% | Tumor mass, Week 5 (HTB-44 human renal tumor): 1280 mg | Tumor mass, % of vehicle control, Week 5 (HTB-44 human renal tumor): 57%

CO[C@H]1C[C@@H]2CC[C@@H](C)[C@@](O)(O2)C(=O)C(=O)N2CCCC[C@H]2C(=O)O[C@H]([C@H](C)C[C@@H]2CC[C@@H](OC(=O)C(C)(CO)CO)[C@H](OC)C2)CC(=O)[C@H](C)/C=C(\C)[C@@H](O)[C@@H](OC)C(=O)[C@H](C)C[C@H](C)/C=C/C=C/C=C/1C [CCI-779, Rapamycin 42-ester with 3-hydroxy-2-(hydroxymethyl)-2-methylpropionic acid]
inhibition of tumor growth (HTB-44 human renal tumor; single agent, 10 mg/kg to 75 mg/kg iv once a week, tumors about 500 mm^3 on day 0, all doses): 30-35% | tumor regression at three fold higher dose (HTB-44 human renal tumor; single agent, 75 mg/kg): did not induce tumor regression | effect on tumor growth (in words) (HTB-44 human renal tumor; single agent): retardation of tumor growth without tumor regression | Tumor mass, Week 0 (HTB-44 human renal tumor): 589 mg | Tumor mass, % of vehicle control, Week 0 (HTB-44 human renal tumor): 100% | Tumor mass, Week 2 (HTB-44 human renal tumor): 825 mg | Tumor mass, % of vehicle control, Week 2 (HTB-44 human renal tumor): 80% | Tumor mass, Week 4 (HTB-44 human renal tumor): 1382 mg | Tumor mass, % of vehicle control, Week 4 (HTB-44 human renal tumor): 69% | Tumor mass, Week 5 (HTB-44 human renal tumor): 1539 mg | Tumor mass, % of vehicle control, Week 5 (HTB-44 human renal tumor): 68% | MTD patients requiring CCI-779 dose reductions in subsequent cycles (advanced RCC; at MTD 15 mg CCI-779, 6 MU IFNα): Approximately 50% | Grade 34 CCI-779-related adverse events, frequency: AST increase (advanced RCC; both, human, in vivo): 8% | Grade 34 CCI-779-related adverse events, frequency: anemia (advanced RCC; both, human, in vivo): 6% | Grade 34 CCI-779-related adverse events, frequency: asthenia (advanced RCC; both, human, in vivo): 13% | Grade 34 CCI-779-related adverse events, frequency: hyperlipidemia (advanced RCC; both, human, in vivo): 15% | Grade 34 CCI-779-related adverse events, frequency: leukopenia (advanced RCC; both, human, in vivo): 25% | Grade 34 CCI-779-related adverse events, frequency: mucositis (advanced RCC; both, human, in vivo): 6% | Grade 34 CCI-779-related adverse events, frequency: rash (advanced RCC; both, human, in vivo): 6% | Grade 34 CCI-779-related adverse events, frequency: thrombocytopenia (advanced RCC; both, human, in vivo): 6% | CCI-779-related adverse events, frequency: anemia (advanced RCC; human, in vivo): 33% | CCI-779-related adverse events, frequency: anorexia (advanced RCC; human, in vivo): 33% | CCI-779-related adverse events, frequency: asthenia (advanced RCC; human, in vivo): 39% | CCI-779-related adverse events, frequency: chills (advanced RCC; human, in vivo): 22% | CCI-779-related adverse events, frequency: diarrhea (advanced RCC; human, in vivo): 28% | CCI-779-related adverse events, frequency: fever (advanced RCC; human, in vivo): 22% | CCI-779-related adverse events, frequency: hyperlipidemia (advanced RCC; human, in vivo): 28% | CCI-779-related adverse events, frequency: leukopenia (advanced RCC; human, in vivo): 22% | CCI-779-related adverse events, frequency: nausea (advanced RCC; human, in vivo): 39% | CCI-779-related adverse events, frequency: taste perversion (advanced RCC; human, in vivo): 22% | Gr 3-4 CCI-779-related AEs: hyperglycemia, number of pts (advanced RCC; human, in vivo): 2 pts | Gr 3-4 CCI-779-related AEs: hyperlipidemia, number of pts (advanced RCC; human, in vivo): 4 pts | Gr 3-4 CCI-779-related AEs: leukopenia, number of pts (advanced RCC; human, in vivo): 3 pts | patients removed from study due to CCI-779-related toxicity (advanced RCC; human, in vivo): Four | CCI-779-related adverse events, frequency: mucositis (advanced RCC; preliminary results, n=18, CCI-779 5-25 mg IV once weekly with IFN 6 MU sc 3 times weekly): 44% | CCI-779-related adverse events, frequency: allergic reaction (advanced RCC; preliminary results, n=18, with IFN): 22% | stability of CCI-779 with citric acid [1]: enhanced the stability | growth of tumor cells in vitro (tumor cells; CNS cancer, leukemia (T-cell), breast, prostate and melanoma lines most sensitive): inhibit the growth of a number of histologically diverse tumor cells | cell cycle effect (tumor cells; in vitro): arrested cells in the G1 phase of the cell cycle | activity in orthotopic glioma model (human tumor xenografts): active | activity against human tumor xenografts (human tumor xenografts; gliomas particularly sensitive): activity against human tumor xenografts of diverse histological types | growth factor (platelet-derived)-induced stimulation of human glioblastoma cell line [2]: markedly suppressed
